Assay results from patent US20230414511A1, “COMPOSITIONS AND METHODS FOR DEEP DERMAL DRUG DELIVERY” (ARCUTIS BIOTHERAPEUTICS, INC., priority 2020, published 2023).

Tests used:
[1] = Particle size distribution of SHR0302 by laser diffraction (Malvern); type: physicochemical; details: SHR0302 used in Example 1, FIG. 1
Source text: In the pharmaceutical compositions of the present invention, the active ingredient is present as small particles. Particle size of the drug can be assessed using laser diffraction methods. Laser diffraction is recognized by standards and guidance agencies including ISO and ASTM and is widely used to determine particle size distributions. In conducting the assessment, the sample is passed through a laser beam, which results in laser light scattered at a range of angles. Detectors placed at fixed angles measure the intensity of light scattered at that position. A mathematical model is then applied to generate a particle size distribution. The particle size values reported herein are determined by using a liquid or wet dispersion method.
In particle size determinations, the median value is defined as the value where half of the population resides above this point, and half resides below this point. For particle size distributions the median is called the D50. The D50 is the size that splits the distribution with half above and half below this diameter. The distribution width may also be characterized by citing one, two or three values on the x-axis, typically some combination of the D10, D50, and D90. The D50, the median, has been defined above as the diameter where half of the population lies below this value. Similarly, 90 percent of the distribution lies below the D90, and 10 percent of the population lies below the D10.
A pharmaceutical composition comprising 3% SHR0302 suspended in dimethicone was prepared. The primary particle size distribution of the SHR0302 is characterized by a D10 value of less than about 0.25 μm; a D50 value of less than about 0.7 μm; and a D90 value of less than about 5 μm. The pharmaceutical composition was a transparent solution due to the particles being too small to scatter visible light. A Malvern Metasizer Model 3000 using the Hydro MV dispersion unit was used to determine the particle size distribution profile of SHR0302. […]

JAK1 = JAK1 (Homo sapiens, UniProt P23458); details: cited from earlier work
[2] = orally administrated, women; cited from earlier work

JAK1, sequence (P23458 whole entry): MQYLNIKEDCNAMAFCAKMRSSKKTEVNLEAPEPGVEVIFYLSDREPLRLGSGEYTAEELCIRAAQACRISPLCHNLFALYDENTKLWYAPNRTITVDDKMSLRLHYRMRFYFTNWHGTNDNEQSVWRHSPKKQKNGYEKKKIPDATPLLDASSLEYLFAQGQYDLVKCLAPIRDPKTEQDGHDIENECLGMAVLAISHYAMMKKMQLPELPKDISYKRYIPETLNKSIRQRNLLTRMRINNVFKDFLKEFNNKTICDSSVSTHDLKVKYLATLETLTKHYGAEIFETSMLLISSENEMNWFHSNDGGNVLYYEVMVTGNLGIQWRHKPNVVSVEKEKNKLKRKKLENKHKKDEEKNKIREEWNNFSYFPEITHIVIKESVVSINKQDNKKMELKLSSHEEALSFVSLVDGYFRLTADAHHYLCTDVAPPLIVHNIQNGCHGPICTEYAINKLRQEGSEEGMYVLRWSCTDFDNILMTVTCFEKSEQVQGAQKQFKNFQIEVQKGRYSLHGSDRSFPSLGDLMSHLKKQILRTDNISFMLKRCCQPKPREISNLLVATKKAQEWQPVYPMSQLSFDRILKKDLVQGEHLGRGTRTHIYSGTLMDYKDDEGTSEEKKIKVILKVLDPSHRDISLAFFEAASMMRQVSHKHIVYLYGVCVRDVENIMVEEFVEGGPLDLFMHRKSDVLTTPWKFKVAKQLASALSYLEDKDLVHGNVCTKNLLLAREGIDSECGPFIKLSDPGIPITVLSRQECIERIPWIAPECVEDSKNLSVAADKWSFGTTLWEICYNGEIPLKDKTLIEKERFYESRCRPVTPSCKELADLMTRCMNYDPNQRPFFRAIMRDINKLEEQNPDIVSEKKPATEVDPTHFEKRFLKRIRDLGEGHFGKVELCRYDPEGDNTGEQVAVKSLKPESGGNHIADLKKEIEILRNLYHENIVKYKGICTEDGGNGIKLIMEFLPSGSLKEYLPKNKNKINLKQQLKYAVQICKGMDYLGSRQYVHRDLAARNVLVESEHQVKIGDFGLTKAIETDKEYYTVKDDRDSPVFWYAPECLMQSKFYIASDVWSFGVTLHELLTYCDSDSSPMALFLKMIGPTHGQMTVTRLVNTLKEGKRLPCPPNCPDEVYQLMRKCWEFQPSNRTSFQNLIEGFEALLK

Row | primary particle size D10 [1] | primary particle size D50 [1] | primary particle size D90 [1] | Compound | inhibition of JAK1 (JAK1) | efficacy in treatment of acne [2]
1 | less than 0.25 μm | less than 0.7 μm | less than 5 μm | COc1nsc(NC(=O)N2C[C@H]3C[C@H](N(C)c4ncnc5[nH]ccc45)C[C@H]3C2)n1 [SHR0302, (3aR,5S,6aS)-N-(3-methoxyl-1,2,4-thiadiazol-5-yl)-5-(methyl(7H-pyrrolo[2,3-d]pyrimidin-4-yl)amino)hexahydrocyclopenta[c]pyrrole-2(1H)-carboxamide] | potent | –
2 | – | – | – | CC(=O)S[C@@H]1CC2=CC(=O)CC[C@]2(C)[C@H]2CC[C@@]3(C)[C@@H](CC[C@@]34CCC(=O)O4)[C@H]12 [spironolactone, 17-hydroxy-7α-mercapto-3-oxo-17α-pregn-4-ene-21-carboxylic acid γ-lactone acetate] | – | efficacious
